For 24 compounds, T/C results are on record in PubChem BioAssay AID330 (DTP/NCI, 2004).

The test system of this assay is P388 leukemia ip, CD2F1 mice, survival T/C. Put plainly: NCI In Vivo Anticancer Drug Screen. Data for tumor model P388 Leukemia (intraperitoneal) in CD2F1 (CDF1) mice. Particulars: endpoint: median survival time, higher = longer survival. In outline: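 Mice carrying the transplanted tumor received test compound or vehicle. Survival was recorded in each group, and the value is the treated-group measurement divided by that of the vehicle-treated control group.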

[1] abbreviates: dose: 60.0 mg/kg/injection, schedule: Q01DX005 (ip), vehicle: saline.
The mark [2] stands for this setting: dose: 120.0 mg/kg/injection, schedule: Q01DX005 (ip), vehicle: saline.
Setting [3] is: dose: 100.0 mg/kg/injection, schedule: Q04DX003 (ip), vehicle: saline with Tween-80.
The mark [4] stands for this setting: dose: 50.0 mg/kg/injection, schedule: Q01DX005 (ip), vehicle: Klucel (hydroxypropylcellulose) (HPC).
The mark [5] stands for this setting: dose: 100.0 mg/kg/injection, schedule: Q01DX005 (ip), vehicle: Klucel (hydroxypropylcellulose) (HPC).
The mark [6] stands for this setting: dose: 200.0 mg/kg/injection, schedule: Q01DX005 (ip), vehicle: Klucel (hydroxypropylcellulose) (HPC).
The mark [7] stands for this setting: dose: 50.0 mg/kg/injection, schedule: Q01DX009 (ip), vehicle: Klucel (hydroxypropylcellulose) (HPC).
[8] abbreviates: dose: 100.0 mg/kg/injection, schedule: Q01DX009 (ip), vehicle: Klucel (hydroxypropylcellulose) (HPC).
[9] abbreviates: dose: 200.0 mg/kg/injection, schedule: Q01DX009 (ip), vehicle: Klucel (hydroxypropylcellulose) (HPC).
Where [10] appears, read: dose: 50.0 mg/kg/injection, schedule: Q01DX009 (ip), vehicle: saline with Tween-80.
Where [11] appears, read: dose: 12.5 mg/kg/injection, schedule: Q01DX009 (ip), vehicle: Klucel (hydroxypropylcellulose) (HPC).
Setting [12] is: dose: 25.0 mg/kg/injection, schedule: Q01DX009 (ip), vehicle: Klucel (hydroxypropylcellulose) (HPC).
[13] abbreviates: dose: 50.0 mg/kg/injection, schedule: Q04DX003 (ip), vehicle: saline with Tween-80.

Where “and” joins values, the source holds several entries; their conditions need not be identical. Equal values may be shown once. Inconclusive results and toxic doses are left out.

On to `Nc1nnc2nc(CC(=O)c3ccccc3)c(=O)[nH]n12`, for which the T/C is, setting by setting: under setting [1], 96 % of control; under setting [2], 100 % of control; (dose: 240.0 mg/kg/injection, schedule: Q01DX005 (ip), vehicle: saline) 100 % of control.

As for `O=[N+]([O-])c1c(Nc2ccccc2)ncnc1Nc1ccccc1`, the T/C runs as follows: under setting [3], 105 % of control; (dose: 200.0 mg/kg/injection, schedule: Q04DX003 (ip), vehicle: saline with Tween-80) 106 % of control; (dose: 400.0 mg/kg/injection, schedule: Q04DX003 (ip), vehicle: saline with Tween-80) 100 % of control.

On to `Nc1c(-c2noc(=O)[nH]2)ncn1Cc1ccccc1`, for which the T/C (dose: 100.0 mg/kg/injection, schedule: Q01DX001 (ip), vehicle: Klucel (hydroxypropylcellulose) (HPC)) was 97 % of control; the T/C (dose: 200.0 mg/kg/injection, schedule: Q01DX001 (ip), vehicle: Klucel (hydroxypropylcellulose) (HPC)) was 92 % of control; the T/C (dose: 400.0 mg/kg/injection, schedule: Q01DX001 (ip), vehicle: Klucel (hydroxypropylcellulose) (HPC)) is 99 % of control.

On to `CCOc1cccc(/C=C2\NC(=S)N(c3ccccc3)C2=O)c1O`, for which the T/C under setting [4] was 101 % of control, the T/C under setting [5] was 93 % of control and the T/C under setting [6] is 99 % of control.

On to `CCOc1ccc(-c2nc(-c3ccc(N(C)C(=O)C(Cl)Cl)cc3)cs2)cc1OCC`, for which the T/C reads like this: (dose: 100.0 mg/kg/injection, schedule: Q04DX003 (ip), vehicle: Klucel (hydroxypropylcellulose) (HPC)) 102 % of control; (dose: 200.0 mg/kg/injection, schedule: Q04DX003 (ip), vehicle: Klucel (hydroxypropylcellulose) (HPC)) 100 % of control; (dose: 400.0 mg/kg/injection, schedule: Q04DX003 (ip), vehicle: Klucel (hydroxypropylcellulose) (HPC)) 94 % of control.

Regarding `Cn1c(=O)[nH]c(Cl)c(NC=O)c1=O`, the T/C is 98 % of control (dose: 25.0 mg/kg/injection, schedule: Q01DX005 (ip), vehicle: water); 103 % of control (dose: 50.0 mg/kg/injection, schedule: Q01DX005 (ip), vehicle: water); 98 % of control (dose: 100.0 mg/kg/injection, schedule: Q01DX005 (ip), vehicle: water); 109 % of control (dose: 200.0 mg/kg/injection, schedule: Q01DX005 (ip), vehicle: water).

Consider `NCCc1ccc(OCc2ccccc2)c(OCc2ccccc2)c1`, for which the T/C was 101 % of control and 107 % of control (dose: 6.25 mg/kg/injection, schedule: Q01DX009 (ip), vehicle: saline); 108 % of control and 118 % of control (dose: 12.5 mg/kg/injection, schedule: Q01DX009 (ip), vehicle: saline); 101 % of control and 109 % of control (dose: 25.0 mg/kg/injection, schedule: Q01DX009 (ip), vehicle: saline).

For `COc1ccc(C=NC#N)cc1`, the T/C under setting [7] is 101 % of control, the T/C under setting [8] was 93 % of control and the T/C under setting [9] was 88 % of control.

For `C/C(=N\N)C1=NNC(C)(C)NN1`, the T/C runs as follows: under setting [7], 96 % of control; under setting [8], 96 % of control; under setting [9], 98 % of control.

In the case of `CC(CN(C)C)C(=O)/C=C/c1ccc(Cl)cc1` (configuration not stated), the T/C under setting [1] was 118 % of control and the T/C under setting [2] was 122 % of control.

For the compound `O=C(Nc1ccc(Nc2ccc3c(c2)C(=O)c2ccccc2C3=O)c2c1C(=O)c1ccccc1C2=O)c1ccccc1`, the T/C was 92 % of control under setting [4], 91 % of control under setting [5] and 88 % of control under setting [6].

Consider `CCCCCCCCOP(=O)(CC(CP(=O)(O)OC)P(=O)(O)OC)OCCCCCCCC` (configuration not stated), for which the T/C is, setting by setting: under setting [4], 91 % of control; under setting [5], 94 % of control; under setting [6], 93 % of control.

Consider `O=C1c2ccccc2C(=O)c2c1c(O)c1cccnc1c2O`, for which the T/C is 103 % of control (dose: 50.0 mg/kg/injection, schedule: Q01DX005 (ip), vehicle: saline with Tween-80); 100 % of control (dose: 100.0 mg/kg/injection, schedule: Q01DX005 (ip), vehicle: saline with Tween-80); 95 % of control (dose: 200.0 mg/kg/injection, schedule: Q01DX005 (ip), vehicle: saline with Tween-80).

In the case of `CC(=O)OCCN1CCN(CCCN2c3ccccc3Sc3ccc(C(F)(F)F)cc32)CC1`, the T/C (dose: 100.0 mg/kg/injection, schedule: Q04DX002 (ip), vehicle: saline) is 89 % of control and 90 % of control.

For `OO.OO.[Cr+3].[NH-]CC[N-]CC[NH-]`, the T/C by setting is: under setting [10], 94 % of control; (dose: 100.0 mg/kg/injection, schedule: Q01DX009 (ip), vehicle: saline with Tween-80) 99 % of control.

For the compound `O=C(CC(=O)N1CCN=C1Nc1c(Cl)cccc1Cl)c1ccc(Cl)cc1`, the T/C reads like this: (dose: 6.25 mg/kg/injection, schedule: Q01DX009 (ip), vehicle: Klucel (hydroxypropylcellulose) (HPC)) 109 % of control; under setting [11], 105 % of control; under setting [12], 96 % of control.

For `CCN(CC)c1ccc(/C=N/Nc2c3c(nc4ccccc24)CCCC3)cc1`, the T/C was 100 % of control (dose: 6.25 mg/kg/injection, schedule: Q01DX005 (ip), vehicle: saline) and 99 % of control (dose: 12.5 mg/kg/injection, schedule: Q01DX005 (ip), vehicle: saline).

`O=C(Nc1ccc(C2=NCCCN2)cc1)Nc1cccc(C(=O)Nc2ccc(C3=NCCCN3)cc2)c1`: the T/C was 100 % of control (dose: 1.5 mg/kg/injection, schedule: Q01DX009 (ip), vehicle: saline with Tween-80); 109 % of control (dose: 3.0 mg/kg/injection, schedule: Q01DX009 (ip), vehicle: saline with Tween-80); 104 % of control (dose: 12.5 mg/kg/injection, schedule: Q04DX003 (ip), vehicle: saline with Tween-80); 163 % of control (dose: 16.5 mg/kg/injection, schedule: Q01DX009 (ip), vehicle: saline with Tween-80); 118 % of control (dose: 25.0 mg/kg/injection, schedule: Q04DX003 (ip), vehicle: saline with Tween-80); 90 % of control under setting [10]. Further, the T/C under setting [13] is 118 % of control.

Regarding `Cc1ccc(S(=O)(=O)N/N=C(\C(=O)O)c2ccccc2)cc1`, the T/C is 102 % of control under setting [11]; 97 % of control under setting [12]; 96 % of control under setting [7]; 94 % of control under setting [8]; 93 % of control under setting [9].

In the case of `O=C1NC(=O)C2(CCCc3ccc(N(CCCl)CCCl)cc32)N1` (configuration not stated), the T/C (dose: 0.38 mg/kg/injection, schedule: Q04DX003 (ip), vehicle: saline with Tween-80) is 108 % of control; the T/C (dose: 0.75 mg/kg/injection, schedule: Q04DX003 (ip), vehicle: saline with Tween-80) was 104 % of control; the T/C (dose: 1.5 mg/kg/injection, schedule: Q04DX003 (ip), vehicle: saline with Tween-80) is 104 % of control; the T/C (dose: 12.5 mg/kg/injection, schedule: Q01DX009 (ip), vehicle: saline with Tween-80) was 159 % of control; the T/C (dose: 25.0 mg/kg/injection, schedule: Q01DX009 (ip), vehicle: saline with Tween-80) is 172 % of control; the T/C under setting [13] is 181 % of control. The T/C runs as follows: under setting [3], 181 % of control; (dose: 132.0 mg/kg/injection, schedule: Q04DX003 (ip), vehicle: saline with Tween-80) 177 % of control.

Take `CC(=O)N1CCCC2=C1CCCCC2`: the T/C (dose: 100.0 mg/kg/injection, schedule: Q04DX003 (ip), vehicle: saline) is 92 % of control; the T/C (dose: 200.0 mg/kg/injection, schedule: Q04DX003 (ip), vehicle: saline) is 100 % of control; the T/C (dose: 400.0 mg/kg/injection, schedule: Q04DX003 (ip), vehicle: saline) is 101 % of control.

Regarding `CC(C)(C)N1CCC1`, the T/C reads like this: under setting [4], 100 % of control; under setting [5], 99 % of control.

As to `CC(C)(C)c1cc2c3c(c1)C(C(F)(F)F)(C(F)(F)F)OS3(O)OC2(C(F)(F)F)C(F)(F)F`, the T/C by setting is: (dose: 12.5 mg/kg/injection, schedule: Q01DX005 (ip), vehicle: suspension in saline) 103 % of control; (dose: 25.0 mg/kg/injection, schedule: Q01DX005 (ip), vehicle: suspension in saline) 108 % of control.

Regarding `CC(=O)N1OCCc2ccccc21`, the T/C is 100 % of control (dose: 60.0 mg/kg/injection, schedule: Q01DX005 (ip), vehicle: saline with Tween-80); 98 % of control (dose: 120.0 mg/kg/injection, schedule: Q01DX005 (ip), vehicle: saline with Tween-80); 98 % of control (dose: 240.0 mg/kg/injection, schedule: Q01DX005 (ip), vehicle: saline with Tween-80).
